# Target: T1, MAGL protein (Homo sapiens, UniProt Q99685)
# T1 sequence (Q99685 1-303): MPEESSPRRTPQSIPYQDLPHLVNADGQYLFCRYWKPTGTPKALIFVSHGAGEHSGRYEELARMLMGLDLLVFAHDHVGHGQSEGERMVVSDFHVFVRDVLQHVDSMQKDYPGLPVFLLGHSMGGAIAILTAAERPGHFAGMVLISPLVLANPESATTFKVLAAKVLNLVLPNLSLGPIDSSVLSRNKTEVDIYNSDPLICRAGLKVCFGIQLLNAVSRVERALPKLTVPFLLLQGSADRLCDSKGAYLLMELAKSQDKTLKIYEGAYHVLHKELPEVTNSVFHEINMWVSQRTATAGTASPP
# Assay: 2-AG assay: MAGL inhibitory activity by hydrolysis of 2-arachidonoylglycerol to arachidonic acid, followed by mass spectrometry
# Type: biochemical
# Details: 8 μM 2-arachidonoylglycerol, 15 min preincubation, 30 min reaction at RT, RapidFire MS readout
# Summary of the method: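 Activity was measured by RapidFire SPE–triple-quad MS as the ratio of arachidonic acid to d8-arachidonic acid after 2-AG hydrolysis (8 μM substrate, 30 min, RT, acetonitrile quench). Compounds, tested from 12.5 μM down to […], were first preincubated 15 min with MAGL in TRIS/EDTA/Tween-20 buffer containing 2.5% DMSO.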
row,IC50,Structure (SMILES)
1,2060 nM,O=C(N1CC2(CC(Cc3ccc(C(F)(F)F)cn3)C2)C1)N1CC2(CC(c3ncn[nH]3)C2)C1 [compound 987]
2,2070 nM,O=C(N1CC2(CC(Cc3ncc(F)cc3F)C2)C1)N1CC2(CC(c3ncn[nH]3)C2)C1 [compound 988]
3,0.05 nM,O=C(N1CC2(CC(Cc3ccc4c(C(F)(F)F)n[nH]c4c3)C2)C1)N1CC2(CC(c3nc(C4CC4)n[nH]3)C2)C1 [compound 989]
4,0.59 nM,O=C(N1CC2(CC(Cc3ccc4nc(C(F)(F)F)cn4c3)C2)C1)N1CC2(CC(c3nc(C4CC4)n[nH]3)C2)C1 [compound 990]
5,2.03 nM,O=C(N1CC2(CC(Cc3cn4cc(C(F)(F)F)nc4cn3)C2)C1)N1CC2(CC(c3nc(C4CC4)n[nH]3)C2)C1 [compound 991]
6,0.16 nM,O=C(N1CC2(CC(Cc3ccc4cnc(C(F)(F)F)n4c3)C2)C1)N1CC2(CC(c3nc(C4CC4)n[nH]3)C2)C1 [compound 992]
7,0.8 nM,O=C(N1CC2(CC(Cc3ccc4nc(C(F)(F)F)nn4c3)C2)C1)N1CC2(CC(c3nc(C4CC4)n[nH]3)C2)C1 [compound 993]
8,0.06 nM,O=C(N1CC2(CC(Cc3ccc4[nH]nc(C(F)(F)F)c4c3)C2)C1)N1CC2(CC(c3nc(C4CC4)n[nH]3)C2)C1 [compound 994]
9,2.74 nM,O=C(N1CC2(CC(Cc3ccc4nnc(C(F)(F)F)n4c3)C2)C1)N1CC2(CC(c3nc(C4CC4)n[nH]3)C2)C1 [compound 995]
10,0.6 nM,O=C(N1CC2(CC(Cc3cnc4cc(C(F)(F)F)nn4c3)C2)C1)N1CC2(CC(c3nc(C4CC4)n[nH]3)C2)C1 [compound 996]
